Here are results for 23 compounds from patent US6555556B1, “Benzamidine derivatives” (Sankyo Company, Limited, priority 1999, dated 2003).

Test [1] has as its target T1, human factor Xa (Homo sapiens, UniProt P00742).
T1 construct: purchased Cosmo Bio Co., Ltd, Tokyo, Japan
Description: Determination of anti-factor Xa activity (chromogenic substrate S-2222). The conditions noted are these: 0.25 unit/ml human factor Xa, 0.4 mM S-2222, tris-HCl buffer pH 8.4, 5 min at room temperature, absorbance 405 nm; read-out: Factor Xa inhibitory activity [IC50 (nM)]. In kind it is biochemical. The method, then:
Anti-factor Xa activity was determined according to the method of Hara et al. (Thromb. Haemost, 71, 314 (1994), with slight modifications. A 50 mM tris-HCl buffer (pH 8.4) containing 0.9% NaCl, 0.4 mM chromogenic substrate, S-2222 (Daiichi Pure Chemicals Co., Ltd., Tokyo, Japan), and a test compound were mixed, and the reaction was started by adding 0.25 unit/ml human factor Xa (Cosmo Bio Co., Ltd, Tokyo, Japan). Distilled water instead of the test compound was added to the buffer in the control group. The reaction mixture in a total volume of 0.1 ml was incubated for 5 min at room temperature. The absorbance at 405 nm was measured continuously using a 96-well microplate reader (model 550, BioRad), and the increase in absorbance for 5 min was calculated as an index of factor Xa activity.

Test [2] has as its target T2, bovine trypsin (Bos taurus, UniProt P00760).
T2 construct: purchased Sigma
T2 sequence (P00760 24-246): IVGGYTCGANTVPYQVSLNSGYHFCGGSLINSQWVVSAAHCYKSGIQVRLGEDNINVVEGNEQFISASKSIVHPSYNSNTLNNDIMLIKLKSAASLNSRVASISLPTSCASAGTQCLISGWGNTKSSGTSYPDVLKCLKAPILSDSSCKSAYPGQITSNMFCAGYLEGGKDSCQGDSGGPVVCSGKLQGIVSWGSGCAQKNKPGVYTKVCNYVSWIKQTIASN
Description: Determination of anti-trypsin activity (chromogenic substrate S-2222). Format: biochemical. The conditions noted are these: bovine trypsin 0.25 μg-protein/ml, 0.4 mM S-2222, tris-HCl buffer pH 8.4, room temperature, 5 min, absorbance 405 nm. On the procedure: Anti-trypsin activity was determined according to the method of Taniuchi et al. [Thromb. Haemost., 79, 543 (1998)] with slight modifications. First, 85 μl of a 50 mM tris-HCl buffer (pH 8.4) containing 0.9% NaCl, 5 μl of chromogenic substrate, S-2222 (final concentration of 0.4 mM, Daiichi Pure Chemicals Co., Ltd., Tokyo, Japan) and 5 μl of a test compound were mixed, and the reaction was started by adding 5 μl of bovine trypsin (final concentration of 0.25 μg-protein/ml, Sigma). Distilled water instead of the test compound was added to the buffer in the control group. The reaction mixture in a total volume of 0.1 ml was incubated at room temperature. The absorbance at 405 nm was measured continuously using a 96-well microplate reader (model 550, BioRad), and the increase in absorbance for 5 min was calculated as an index of trypsin activity.

Counter-ions that a name gives are not always drawn.

T1 sequence (P00742 235-488 limits assumed): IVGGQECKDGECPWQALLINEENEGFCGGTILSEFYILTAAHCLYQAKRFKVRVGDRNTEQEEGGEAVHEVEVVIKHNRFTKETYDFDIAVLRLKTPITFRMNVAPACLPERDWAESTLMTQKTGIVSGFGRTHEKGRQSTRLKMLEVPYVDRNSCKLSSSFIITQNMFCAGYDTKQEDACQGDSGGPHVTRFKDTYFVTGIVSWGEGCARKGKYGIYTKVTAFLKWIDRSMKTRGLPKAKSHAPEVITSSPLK
T1 sequence (P00742 41-179 partner limits assumed): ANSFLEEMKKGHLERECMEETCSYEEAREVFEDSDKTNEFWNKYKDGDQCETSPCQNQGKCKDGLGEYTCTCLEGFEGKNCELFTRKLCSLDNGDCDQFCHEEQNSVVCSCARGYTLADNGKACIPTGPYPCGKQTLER

Regarding `CC(=N)N1CCC(Oc2ccc(N(CCOc3cccc(C(=N)N)c3)S(=O)(=O)CC(=O)O)cc2)CC1` [Compound A, N-[4-[1-acetimidoyl-4-piperidyloxy]phenyl]-N-[2-(3-amidinophenoxy)ethyl]sulfamoylacetic acid dihydrochloride salt, reference compound], the half-inhibitory concentration (IC50) (as a rule, the midpoint of a concentration-inhibition curve) in test [1] is 130 nM.

In the case of `CCOC(=O)CS(=O)(=O)N(C/C=C/c1cccc(C(=N)N)c1)c1ccc(OC2CCN(C(C)=N)CC2)cc1` [Example 3, Ethyl N-[4-(1-Acetimidoylpiperidin-4-yloxy)phenyl]-N-[3-(3-amidinophenyl)-2-(E)-propenyl]sulfamoylacetate Dihydrochloride], in test [1], the half-inhibitory concentration (IC50) amounted to 8.6 nM.

Take `CC(=N)N1CCC(Oc2ccc(N(C/C=C/c3cccc(C(=N)N)c3)S(=O)(=O)CC(=O)O)cc2)CC1` [Example 4, N-[4-(1-Acetimidoylpiperidin-4-yloxy)phenyl]-N-[3-(3-amidinophenyl)-2-(E)-propenyl]sulfamoylacetic Acid Dihydrochloride]: in test [1], the IC50 amounted to 6.4 nM. `CCOC(=O)CS(=O)(=O)N(C/C=C/c1cccc(C(=N)N)c1)c1ccc(OC2CCN(C(C)=N)CC2)c(Cl)c1` [Example 8, Ethyl N-[4-(1-Acetimidoylpiperidin-4-yloxy)-3-chlorophenyl]-N-[3-(3-amidinophenyl)-2-(E)-propenyl]sulfamoylacetate Dihydrochloride]: the IC50 in test [1] is 4.5 nM.

For `CC(=N)N1CCC(Oc2ccc(N(C/C=C/c3cccc(C(=N)N)c3)S(=O)(=O)CC(=O)O)cc2Cl)CC1` [Example 9, N-[4-(1-Acetimidoylpiperidin-4-yloxy)-3-chlorophenyl]-N-[3-(3-amidinophenyl)-2-(E)-propenyl]sulfamoylacetic Acid Dihydrochloride], the IC50 was 520 nM in test [2] and 7.4 nM in test [1]. `CCOC(=O)CS(=O)(=O)N(C/C=C/c1cccc(C(=N)N)c1)c1ccc(OC2CCN(C(C)=N)CC2)c(F)c1` [Example 10, Ethyl N-[4-(1-Acetimidoylpiperidin-4-yloxy)-3-fluorophenyl]-N-[3-(3-amidinophenyl)-2-(E)-propenyl]sulfamoylacetate Dihydrochloride]: the IC50 in test [1] was determined as 4.6 nM.

As to `CC(=N)N1CCC(Oc2ccc(N(C/C=C/c3cccc(C(=N)N)c3)S(=O)(=O)CC(=O)O)cc2F)CC1` [Example 11, N-[4-(1-Acetimidoylpiperidin-4-yloxy)-3-fluorophenyl]-N-[3-(3-amidinophenyl)-2-(E)-propenyl]sulfamoylacetic Acid Dihydrochloride], the figures for the IC50 in test [2] and in test [1] were 840 nM and 8.1 nM, respectively. On to `CC(=N)N1CCC(Oc2ccc(N(C/C=C/c3cccc(C(=N)N)c3)C(C)C)cc2)CC1` [Example 22, 3-[3-[N-[4-(1-Acetimidoylpiperidin-4-yloxy)phenyl]-N-isopropylamino]-1-(E)-propenyl]benzamidine Trihydrochloride], for which the half-inhibitory concentration (IC50) in test [1] came out at 8.3 nM.

In the case of `CCOC(=O)CN(C/C=C/c1cccc(C(=N)N)c1)c1ccc(OC2CCN(C(C)=N)CC2)cc1` [Example 23, Ethyl 2-[N-[4-(1-Acetimidoylpiperidin-4-yloxy)phenyl]-N-[3-(3-amidinophenyl)-2-(E)-propenyl]amino]acetate Trihydrochloride], in test [1], the IC50 stood at 8.3 nM.

On to `CC(=N)N1CCC(Oc2ccc(N(C/C=C/c3cccc(C(=N)N)c3)CCO)cc2)CC1` [Example 28, 3-[3-[N-[4-(1-Acetimidoylpiperidin-4-yloxy)phenyl]-N-(2-hydroxyethyl)amino]-1-(E)-propenyl]benzamidine Trihydrochloride], for which the IC50 in test [1] came to 9 nM. Regarding `CCOC(=O)CS(=O)(=O)N(C/C=C/c1cccc(C(=N)N)c1)c1ccc(OC2CCN(C(C)=N)CC2)c(C(=O)OCC)c1` [Example 29, Ethyl N-[4-(1-Acetimidoylpiperidin-4-yloxy)-3-ethoxycarbonylphenyl]-N-[3-(3-amidinophenyl)-2-(E)-propenyl]sulfamoylacetate Dihydrochloride], the concentration for half-maximal inhibition (IC50) in test [1] came to 9 nM.

`CCOC(=O)CS(=O)(=O)N(C/C=C/c1cccc(C(=N)N)c1)c1ccc(OC2CCN(C(C)=N)CC2)c(Br)c1` [Example 31, Ethyl N-[4-(1-Acetimidoylpiperidin-4-yloxy)-3-bromophenyl]-N-[3-(3-amidinophenyl)-2-(E)-propenyl]sulfamoylacetate Dihydrochloride]: in test [1], the IC50 worked out at 10 nM.

Regarding `CC(=N)N1CCC(Oc2ccc(N(C/C=C/c3cccc(C(=N)N)c3)S(=O)(=O)CC(=O)O)cc2C(C)C)CC1` [Example 34, N-[4-(1-Acetimidoylpiperidin-4-yloxy)-3-isopropylphenyl]-N-[3-(3-amidinophenyl)-2-(E)-propenyl]sulfamoylacetic Acid Dihydrochloride], the 50% inhibitory concentration (IC50) in test [1] amounted to 10 nM.

On to `CC(=N)N1CCC(Oc2ccc(N(C/C=C/c3cccc(C(=N)N)c3)S(=O)(=O)CC(=O)O)cc2C(N)=O)CC1` [Example 36, N-[4-(1-Acetimidolpiperdin-4-yloxy)-3-carbamoylphenyl]-N-[3-(3-amidinophenyl)-2-(E)-propenyl]sulfamoylacetic Acid Dihydrochloride], for which the IC50 in test [1] was found to be 7.1 nM. For `CNC(=O)c1cc(N(C/C=C/c2cccc(C(=N)N)c2)S(=O)(=O)CC(=O)O)ccc1OC1CCN(C(C)=N)CC1` [Example 38, N-[4-(1-Acetimidoylpiperidin-4-yloxy)-3-(N′-methylcarbamoyl)phenyl]-N-[3-(3-amidinophenyl)-2-(E)-propenyl]sulfamoylacetic Acid Dihydrochloride], the IC50 in test [1] came out at 8.7 nM. With `CCOC(=O)CS(=O)(=O)N(C/C=C/c1cc(C(=N)N)ccc1O)c1ccc(OC2CCN(C(C)=N)CC2)c(Cl)c1` [Example 41, Ethyl N-[4-(1-Acetimidoylpiperidin-4-yloxy)-3-chlorophenyl]-N-[3-(5-amidino-2-hydroxyphenyl)-2-(E)-propenyl]sulfamoylacetate Dihydrochloride], the IC50 in test [1] worked out at 7.5 nM. Still for that read-out and setting: the value for `CCOC(=O)CS(=O)(=O)N(C/C=C/c1cccc(C(=N)N)c1)c1cc(F)c(OC2CCN(C(C)=N)CC2)c(F)c1` [Example 46, Ethyl N-[4-(1-Acetimidoylpiperidin-4-yloxy)-3,5-difluorophenyl]-N-[3-(3-amidinophenyl)-2-(E)-propenyl]sulfamoylacetate Dihydrochloride] was 6.8 nM; that for `CC(=N)N1CCC(Oc2c(F)cc(N(C/C=C/c3cccc(C(=N)N)c3)S(=O)(=O)CC(=O)O)cc2F)CC1` [Example 47, N-[4-(1-Acetimidoylpiperidin-4-yloxy)-3,5-difluorophenyl]-N-[3-(3-amidinophenyl)-2-(E)-propenyl]sulfamoylacetic Acid Dihydrochloride] was 3.7 nM. On the same count and under the same terms, the value for `CC(=N)N1CCC(Oc2c(Cl)cc(N(C/C=C/c3cccc(C(=N)N)c3)S(=O)(=O)CC(=O)O)cc2Cl)CC1` [Example 49, N-[4-(1-Acetimidoylpiperidin-4-yloxy)-3,5-dichlorophenyl]-N-[3-(3-amidinophenyl)-2-(E)-propenyl]sulfamoylacetic Acid Dihydrochloride] was 9.8 nM; that for `CC(=N)N1CCC(Oc2ccc(N(C/C=C/c3cccc(C(=N)N)c3)S(=O)(=O)CC(=O)O)cc2C(F)(F)F)CC1` [Example 54, N-[4-(1-Acetimidoylpiperidin-4-yloxy)-3-trifluoromethylphenyl]-N-[3-(3-amidinophenyl)-2-(E)-propenyl]sulfamoylacetic Acid Dihydrochloride] was 4.6 nM. On the same count and under the same terms, the value for `CC(=N)N1CCC(Oc2ccc(N(C/C=C/c3cccc(C(=N)N)c3)S(=O)(=O)CC(=O)O)cc2C)CC1` [Example 55, N-[4-(1-Acetimidoylpiperidin-4-yloxy)-3-methylphenyl]-N-[3-(3-amidinophenyl)-2-(E)-propenyl]sulfamoylacetic Acid Dihydrochloride] was 5 nM; that for `CCOC(=O)CS(=O)(=O)N(C/C(F)=C/c1cccc(C(=N)N)c1)c1ccc(OC2CCN(C(C)=N)CC2)cc1` [Example 56, Ethyl N-[4-(1-Acetimidoylpiperidin-4-yloxy)phenyl]-N-[3-(3-amidinophenyl)-2-fluoro-2-(Z)-propenyl]sulfamoylacetate Dihydrochloride] was 10 nM. `CC(=N)N1CCC(Oc2ccc(N(C/C(F)=C/c3cccc(C(=N)N)c3)S(=O)(=O)CC(=O)O)cc2)CC1` [Example 57, N-[4-(1-Acetimidoylpiperidin-4-yloxy)phenyl]-N-[3-(3-amidinophenyl)-2-fluoro-2-(Z)-propenyl]sulfamoylacetic Acid Dihydrochloride]: the 50% inhibitory concentration (IC50) in test [1] amounted to 9.3 nM.
